conditions: acidic group

Structure (SMILES) | pKa
C[NH+](C)Cc1cc(Br)ccc1O | 7.58
CC1(C)OC(=O)NC1=O | 6.15
CC1(C)CC(=O)CC(=O)C1 | 5.21
Sc1cc[nH+]c2ccccc12 | 0.77
NC(=O)c1cccnc1 | 13.5
CCCc1c(O)n2c3cc(C)ccc3nc(N(C)C)n2c1=O | 6.55
CC(=O)CN=O | 8.4
O=C1Cc2c1ccc(O)c2[N+](=O)[O-] | 3.98
CC(=O)C(C)C(C)=O | 10.8
O=c1cccccc1S | 5.9
CC(=O)CC(=O)c1ccccc1 | 8.69
NS(=O)(=O)c1ccc(P(=O)(O)O)cc1 | 1.42
O=[N+]([O-])c1cc(Cl)ccc1O | 3.5
Cc1cc(O)cc(C)c1[N+](=O)[O-] | 8.25
Oc1ccccc1C1CCNCCNCCCNCCN1 (stereo not drawn) | 10.8
Cc1ccc(S(=O)(=O)NC(=O)OC(C)(C)C)cc1 | 5.05
C[N+](C)(C)c1ccc(O)c([N+](=O)[O-])c1 | 5.03
Cc1c(C)c(O)c(C)c(C)c1O | 11.3
O=C1Nc2ccccc2C1=O | 11.9
CC[NH+](C)CCCNC(=O)/C=N/O | 8.72
Cc1ccc(=O)c(O)c(Br)c1 | 6.41
O=c1ccc(O)ccc1O | 6.47
Cc1cc(CO)c(O)c(CO)c1 | 9.92
O=Cc1ccc(O)c(O)c1 | 7.45
Cc1ncc(CO)c(C[NH3+])c1O | 8.02

Structure (SMILES) | pKa
CCC([NH3+])C(=O)O (stereo not drawn) | 2.29
OC(O)c1ccncc1 | 12.2
O=C([O-])c1c(O)ccc2ccccc12 | 10.9
O=S(=O)(O)c1ccc(Br)cc1 | -6.72
N#CC(C#N)=NNc1ccc(CCCl)cc1 | 6.5
C[NH+](C)c1ccccc1C(=O)O | 1.4
CC(=O)CCCC(=O)O | 4.66
C/C=C/CC(=O)O | 4.28
COc1csc(C(=O)O)c1 | 3.41
O=C1C[C@@H](C(=O)O)[C@@H](C(=O)O)O1 | 2.26
Cc1ncnc2nc[nH]c12 | 9.21
[NH3+]C(Cc1ccc[nH+]c1)C(=O)O (stereo not drawn) | 1.69
Cc1ccc2ccccc2c1C(=O)O | 3.11
COc1ccc2c(c1)nnn2O | 5.07
O=C(S)c1ccccc1 | 2.44
CC(O)(c1ccccc1)C(C(=O)O)c1ccc(-c2ccccc2)cc1 (stereo not drawn) | 3.38
Nc1nc2cc3ccccc3cc2[nH]1 | 12.8
O=C([O-])CCCC(=O)NOCc1ccccc1 | 10.2
S=C1NC(=S)C(c2ccccc2)N1 (stereo not drawn) | 8.15
CCC(=O)c1cc(C(C)=O)n[nH]1 | 9.05
[O-]c1ccccc1/C=N/O | 12.1
Cn1c(CCl)nc2c(O)ccc(O)c21 | 8.4
O=[N+]([O-])c1ccc(S(=O)(=O)O)cc1 | -7.15
CC(O)[C@@H]1C[NH2+][C@H](C(=O)O)[C@H]1CC(=O)O (stereo partly drawn) | 2.94
COc1ccc(O)cc1C | 10.2

Structure (SMILES) | pKa
Nc1ccc(S(=O)(=O)Nc2cccnn2)cc1 | 7.06
C(C[NH2+]CCc1nnn[nH]1)[NH2+]CCc1nnn[nH]1 | 3.11
CC(=O)c1cc[nH]n1 | 11.8
Oc1c(I)cc(Cl)c2cccnc12 | 7.9
Cc1cc(Nc2ccc(O)cc2)cc(C)c1O | 10
CC1NCCc2c1[nH]c1ccc([N+](=O)[O-])cc21 (stereo not drawn) | 14.1
C#CC(=O)O | 1.89
[O-][n+]1cnc2[nH]cnc2c1NCc1ccccc1 | 8.22
Cc1ccc(C(=O)O)c(I)c1 | 3.2
Cc1cc(C[NH3+])c(O)c(C[NH3+])c1 | 7
O=S(=O)([N-]c1ncccn1)c1ccc(O)cc1 | 9
N#CC(C#N)=NNc1ccc(OC(F)(F)F)cc1 | 6
CCSC(C)O (stereo not drawn) | 14.3
CC(C)Nc1ncnc2[nH]ncc12 | 11
C[N+](C)(C)CCc1ccc(O)cc1 | 9.8
CC(C)CCOc1ccccc1/C=C\C(=O)O | 4.38
CC(C)c1csc(C(=O)O)c1 | 3.64
CC[Si](C)(C)CCCC(=O)O | 5.02
C[n+]1cccc2cccc(O)c21 | 6.81
COc1cc(CO)ccc1O | 9.79
CC(C)(C)OOCCC(=O)O | 4.36
O=C([O-])C(CO)[NH2+]Cc1cc([N+](=O)[O-])ccc1O (stereo not drawn) | 6.15
CCCCOC(=S)NC(C)=O | 9.25
CC(C)(C)CC(=O)O | 5.01
CC(C)c1nnn[nH]1 | 5.55

same assay, conditions: basic group

Structure (SMILES) | pKa
CCCc1ccnc2c1ccc1cccnc12 | 5.45
CN(C)CC#N | 4.5
O=C([O-])c1cccc2cccnc12 | 6.99
COC(=O)C1CCCN(C)C1 (stereo not drawn) | 8.45
NCc1ccc(C=O)o1 | 8.1
Nc1ccc2[nH]ncc2c1 | 5.15
CCC(C)NCC(C)C (stereo not drawn) | 10.8
NC(=O)c1cccnc1 | 3.32
Cc1cc(C)c(C)c(N)c1C | 4.3
N[C@H]1CCCCC[C@@H]1O | 9.35
C=C(C)[C@@H]1CN[C@H](C(=O)[O-])[C@@H]1CC(=O)[O-] | 10.2
CCN(CC)NC | 7.14
COc1ccc(C(=N)c2ccccc2)c(OC)c1 | 8.3
[O-]c1c(Cl)cc(Cl)c(Cl)c1CN1CCCCC1 | 10.3
CN(C)CCCNC(=O)/C=N/[O-] | 9.78
Cc1ccc(CNCCN)cc1 | 9.41
Nc1c2ccccc2nc2c(N)cccc12 | 9.3
Cc1ccc(/N=N/c2ccc(N(C)C)cc2)cc1C | 2.37
CON | 4.62
Cc1ccc(Nc2ccccc2)cc1 | 1.16
Cc1cccnn1 | 3.46
CN(C)CCC(=O)[O-] | 9.85
CCCCCCCCCCCCCCCC[NH+](CCCCCCCCCCCCCCCC)CCCn1ccnc1 | 4.4

Structure (SMILES) | pKa
CCCCCCCCN | 10.8
CN(C)CCC(=O)C(C)(C)C | 9.49
Nc1cccc2cc3ccccc3nc12 | 4.4
Nc1ccc2cncnc2c1 | 4.6
[O-]c1ccnc([S-])n1 | 12.7
Cc1cnc(N)s1 | 5.71
c1cnc2c(c1)ccc1cccnc12 | 4.96
CCCCNCCCC | 11.3
[S-]c1cccc2cccnc12 | 8.29
Nc1nc(N)nc(N(CCO)CCO)n1 | 5.1
CCC(C)N (stereo not drawn) | 10.6
N#CCCNCCC#N | 5.23
O=C([O-])[C@@H]1C[C@@H](O)CN1 | 9.64
Cc1cccc(CCCCCCCC(=O)[O-])n1 | 7
CCCCCCCCCCCCN(CCO)CC(O)CC (stereo not drawn) | 6.4
CC1(C)[C@@H](N)[C@@H]1[NH3+] | 5.97
Cc1ncc(CO)c(C[NH3+])c1O | 3.38
COc1ncc2ccccc2n1 | 1.31
CCOC(=O)c1cnc2cc3c(cc2c1OCC)OCO3 | 4.09
Cc1ccc(N)cc1Cl | 4.05
N#CC(C#N)=NNc1ccc(CCCl)cc1 | -0.81
CNCCNC | 10.1
CNc1ccccc1 | 4.8

Structure (SMILES) | pKa
CCCCCN(CC(C)O)CC(C)O (stereo not drawn) | 9
OC[C@@H]1O[C@H](CN2CCOCC2)[C@@H](O)[C@H](O)[C@@H]1O | 6.1
COc1ccc2ccccc2n1 | 3.17
Cc1cc(C)n(Cc2cc(C)n(C)n2)[nH+]1 | 0.6
Cc1ccc2c(c1)c1c3c(nccn32)CCC1 | 6.24
Cn1cc[nH+]c1N=[N+]=[N-] | 0.5
Cc1ncnc2nc[nH]c12 | 2.6
NCc1cccc(O)c1O | 8.3
CNCC(=O)Nc1c(C)cccc1C | 7.99
c1ncc(Cc2cnc[nH]2)[nH]1 | 7.63
NCCCCCCN | 11
COc1ccc(-c2cn3ccnc3[nH]2)c(OC)c1 | 6.76
Nc1nc2cc3ccccc3cc2[nH]1 | 7.01
CCN1CCCC=C1C | 11.6
CN(C)CCCCC(=O)Oc1ccccc1 | 10
S=C1NC(=S)C(c2ccccc2)N1 (stereo not drawn) | -3.16
CC(=O)CCN1CCOCC1 | 6.66
C[C@H](N)[C@H](O)c1ccccc1 | 8.81
Cn1c(CCl)nc2c(O)ccc(O)c21 | 4.03
CCCNCCNCCC | 10.3
NCc1cccnc1 | 8.33
CC[C@]12CCCN3CC[C@@]4(c5cccc(OC)c5N[C@H]4CC1)[C@@H]32 | 8.46
Nc1ccc(S(=O)(=O)Nc2cccnn2)cc1 | 1.3

Structure (SMILES) | pKa
C[NH+](C)CCCNc1c2ccccc2nc2c(Cl)ccc([N+](=O)[O-])c12 | 5
C=CCc1c(O)n[nH]c1C | 2.8
NCC[n+]1ccc2ccccc2c1 | 6.85
CN1CCCC2CCN=C21 (stereo not drawn) | 11.5
Oc1c(I)cc(Cl)c2cccnc12 | 2.61
CCOc1ccc2c3c1O[C@H]1[C@@H](O)C=C[C@H]4[C@@H](C2)N(C)CC[C@@]341 | 8.03
NCC[n+]1cc(Br)c2ccccc2c1 | 6.71
C[NH+]1CCn2c(nc3ccccc32)C1 | 2.55
CCN(CC)Cc1ccccc1 | 9.44
C1CNCCNCCCNCCNC1 | 11.1
C=CCN(C)CCCNC(=O)/C=N/[O-] | 9.5
Cn1cc2ccccc2n1 | 2.13
C#CC(CC)(CC)N(C)C(C)C | 8.8
Cc1ccc(C(O)CN)cc1 (stereo not drawn) | 9.06
CCCSCCN(CC)CC | 8.83
CCCCNCC(=O)c1ccc(O)cc1 | 8.55
C[C@@H]1C[NH2+][C@@H](C)CN1 | 5.29
[O-]c1ccc2ccccc2n1 | 11.7
[O-][n+]1cnc2[nH]cnc2c1NCc1ccccc1 | 2.66
O=[N+]([O-])c1cc(-c2ccccc2)nnc1NCC[NH+]1CCOCC1 | 0.2
ONc1ccc(Cl)cc1 | 2.58
CC(=O)c1ccncc1 | 3.6
ClC1CN2CCC1CC2 (stereo not drawn) | 8.79

Structure (SMILES) | pKa
[NH3+]CCCCCc1cccnc1 | 5.61
N#CC(C#N)=NNc1ccc(OC(F)(F)F)cc1 | -0.78
Nc1ncc(Cl)s1 | 3.66
CCCCNc1ccnc2cccc([N+](=O)[O-])c12 | 7.18
OCc1c[nH]cn1 | 6.38
CC(C)Nc1ncnc2[nH]ncc12 | 4.62
CC(=O)CCCCN(C)C | 9.66
CCN(C)CC | 10.4
C[NH2+]Cc1ccccn1 | 2.91
C=CCC(C)(O)CN(CC)CC (stereo not drawn) | 9.71
Nc1ccc(S(=O)(=O)Nc2cnccn2)cc1 | 1.77
CCCNCc1ccccc1 | 9.62
Cc1cnc2cccc([N+](=O)[O-])c2c1NCCC[NH+](C)C | 6.01
CC(=O)c1ccccn1 | -0.46
Nc1ncnc(N)c1N | 5.78
OCCCCc1ccncc1 | 6.01
NCCSCC[NH3+] | 8.84
COc1ccc(C(N)=O)cc1 | -1.6
CCC(C)(C)N(C)C(C)C | 11.2
CC(=O)Nc1ccc(C2CCC[NH+]2C)cn1 (stereo not drawn) | 2.2
Nc1ncnc2scnc12 | 2.77

Reference: the pKa sets of Baltruschat and Czodrowski (2020)
